According to patent US20080287396A1, “Phosphonated Fluoroquinolones, Antibacterial Analogs Thereof, and Methods for the Prevention and Treatment of Bone and Joint Infections” (TARGANTA THERAPEUTICA INC., priority 2005, published 2008):
Entries after “also recorded” stand apart in the source; their conditions may differ.

Assays:
S. aureus ATCC 13709 [1] = experiment: Prophylactic model of bone infection in rats; format: in vivo, rat; details: for prophylactic effect in rat model of bone infection, in words: Table 4 and FIGS. 6-8, doses as in Table 4
Procedure, shortened: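 Female CD rats (n=5/group) given intra-tibial 5% sodium morrhuate then S. aureus (ca. 5×10^5 CFU/rat), hole sealed with dental cement. Prodrugs given as single IV bolus in 0.9% saline at various times before infection; parent at molar equivalent dose. Tibiae harvested 24 h postinfection; Log CFU/g bone, detection limit 2 Log CFU/g.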

[2] = Bone powder binding, LC/MS detection; details: 100 μM compound, Tris-HCl pH 7, 0.15M NaCl, ground rat tibia bone, 10 min
Protocol: The ability of the example molecules to bind to bone powder was established in two parallel fashions, using either LC/MS or fluorometric detection. For LC/MS detection, a stock solution (5 mM) of the compound to be tested was added to 0.1M Tris-HCl buffer pH 7, 0.15M NaCl to reach a final concentration of 100 μM. Triplicate samples (1 mL) of the compound solutions were intensively shaken for 10 min with or without 25 mg of fresh or 20 mg of vacuum dried ground rat tibia bone. The samples were then centrifuged for 15 min at 10 000 g. The presence of unbound compound was measured by injection of 30 μL of each of the supernatants into an Agilent 1100™ LC/UV system. For fluorometric detection, an individual compound was dissolved in PBS or water (compound 52) and resuspended at a concentration of 1 mg/ml in a slurry of bone meal powder (Now Foods, Bloomingdale, Ill., USA) in PBS at 10 mg/ml. The suspension of drug/prodrug in bone meal powder was incubated at 37° C. for 1 h to allow for binding, and centrifuged at 13 000 rpm for 2 min, before recovering the supernatant. The bone meal powder pellet was then washed three times with 1 ml of PBS. All supernatants were saved and assessed for fluoroquinolone content by fluorescence measurements at excitation/emission wavelengths of 280/465 nm. The amount of fluoroquinolone was determined from standard curves generated for each experiment. Amount of drug/prodrug bound to bone powder was deduced from the difference between the input amount (typically 1 mg) and the amount recovered in the supernatants after binding. In all binding experiments, >99% of input drug was recovered in the supernatant for the parent drugs.

S. aureus ATCC 13709 [3] = experiment: Combination with Rifampicin in treatment of osteomyelitis induced in rats; format: in vivo, rat; details: 34 mg/kg 54 IV + 20 mg/kg Rifampicin s.c. on days 14, 15, 16, 17 after surgery; titer on day 43
Protocol: The cells were washed twice with phosphate-buffered saline (PBS) and resuspended in BHIB supplemented with 10% (vol./vol.) fetal bovine serum at a density of approximately 10^10 colony forming units (CFU)/ml (based upon turbidimetry). The suspension was aliquoted and a portion was used to check the CFU count. The culture was stored frozen (−80° C.) and was used without subculture. For use as an inoculum the culture was thawed, diluted in PBS and kept in an ice bath until it was used.
Animals were infected as described by O'Reilly et al. (Antimicrobial Agents and Chemotherapy (1992), 36(12): 2693-97) to generate the bone infection. Female CD rats (age, 57 to 70 days; n=5/group; Charles River, St-Constant, Canada) were anaesthetized by isofluorane before and during the surgery. Following complete induction of anesthesia, the rat was placed ventral side up and hair was shaved from the surgical site. The skin over the leg was cleaned and disinfected (proviodine-ethanol 70%). A longitudinal incision below the knee joint was made in the sagital plane. The incision was made over the bone below the “knee joint” (tibia head or condyle) but not completely extending to the ankle. A high speed drill fitted with a 2 mm bulb bit was used to drill a hole into the medullar cavity of the tibia. […]

SMILES: COc1c(N2C[C@@H]3CCCN[C@@H]3C2)c(F)cc2c(=O)c(C(=O)OCC(=O)NC(P(=O)(O)O)P(=O)(O)O)cn(C3CC3)c12 [Compound 52, (1,1-Bisphosphonomethylcarbamoyl)methyl 1-cyclopropyl-6-fluoro-1,4-dihydro-7-((4aS,7aS)-octahydropyrrolo[3,4-b]pyridin-6-yl)-8-methoxy-4-oxoquinoline-3-carboxylate]
- bacterial titer compared with untreated group (S. aureus ATCC 13709 [1]; 15.8 mg/kg IV 5, 10, 15 and 20 days before infection (FIG. 6)): significant (p<0.05) decrease in bacterial titer
- Measured bacterial titer (Log CFU/g of bone) Test compound (S. aureus ATCC 13709 [1]; 15.8 mg/kg IV, 2 days prior to infection, 24 h postinfection): 2.29 ± 0.30 Log CFU/g of bone
- bacterial titer compared with untreated group (S. aureus ATCC 13709 [1]; 32 mg/kg IV 7, 14, 21 and 28 days prior to infection (FIG. 7)): significant decrease in bacterial titer
- prophylactic effect in rat model of bone infection, in words (S. aureus ATCC 13709 [1]): efficient prophylactic effect
- Binding to bone (%) LC/MS [2]: 94.2 ± 3.2%

SMILES: COc1c(N2CCNC(C)C2)c(F)cc2c(=O)c(C(=O)OCC(=O)NC(P(=O)(O)O)P(=O)(O)O)cn(C3CC3)c12 (stereo not drawn) [Compound 54, (1,1-Bisphosphonomethylcarbamoyl)methyl 7-(3-methylpiperazin-1-yl)-1-cyclopropyl-6-fluoro-1,4-dihydro-8-methoxy-4-oxoquinoline-3-carboxylate]
- bacterial titer compared with untreated group (S. aureus ATCC 13709 [1]; 17.3 mg/Kg IV 48 h prior to infection (FIG. 8)): significant (p-value ≦0.0002) decrease in bacterial titer; also recorded: nearly sterile bone
- Measured bacterial titer (Log CFU/g of bone) Test compound (S. aureus ATCC 13709 [1]; 20 mg/kg IV, 3 days prior to infection): 2.96 ± 0.69 Log CFU/g of bone
- prophylactic effect in rat model of bone infection, in words (S. aureus ATCC 13709 [1]): efficient prophylactic effect
- bacterial titer in the infected tibiae, combination with Rifampicin (S. aureus ATCC 13709 [3]): statistically significant decrease (p=0.007)
